# Tests used:
# [1] = biological target: T1, recombinant rat cathepsin B (Rattus norvegicus, UniProt P00787); assay: Enzymatic activity assay, fluorogenic substrate Z-FR-AMC; type: biochemical; settings: PPE1 5 µmol/L, 15 min (Figure 4A)
# T1 construct: gift of Dr Lukas Mach
# Protocol: (§1) To evaluate the influence of Bet_v_1 ligands on cathepsin S and legumain activities, 10 nmol/L of protease was incubated with 100 µmol/L of ligand (unless otherwise stated) and 50 µmol/L of fluorogenic substrate in digestion buffer (0.1 mol/L sodium acetate pH 5.0, 0.1 mol/L sodium chloride, 5 mmol/L EDTA, and 2 mmol/L DTT), as described in the Appendix [Link], [Link]. The effect of birch pollen extract (BPE) (20‐200 µg/mL) on the cathepsin S and legumain activities was assessed in parallel. The inhibitory effect of PPE1 was assessed by replacing DTT with 0.5 mmol/L TCEP. Activities of recombinant rat cathepsin B (provided by Dr Lukas Mach) and papain (Merck) at 10 nmol/L were assayed using Z‐FR‐AMC (Bachem) as a fluorogenic substrate.
# papain = biological target: T2, papain (Carica papaya, UniProt P00784); assay: as above; type: biochemical; settings: PPE1 5 µmol/L, 15 min (Figure 4A)
# T2 construct: purchased Merck
# T2 sequence (P00784 134-345): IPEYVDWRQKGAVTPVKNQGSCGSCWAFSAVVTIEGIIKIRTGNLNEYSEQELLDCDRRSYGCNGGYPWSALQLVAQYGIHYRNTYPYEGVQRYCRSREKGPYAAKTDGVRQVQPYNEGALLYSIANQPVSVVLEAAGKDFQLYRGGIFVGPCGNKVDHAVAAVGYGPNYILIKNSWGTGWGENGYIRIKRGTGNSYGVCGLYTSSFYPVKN
# Protocol: as §1
# Bet_v_1 = biological target: T3, Bet_v_1 (Betula pendula, UniProt P15494); assay: NMR spectroscopy (1H-15N HSQC) binding confirmation
# T3 construct: made in house
# T3 sequence (P15494 1-160): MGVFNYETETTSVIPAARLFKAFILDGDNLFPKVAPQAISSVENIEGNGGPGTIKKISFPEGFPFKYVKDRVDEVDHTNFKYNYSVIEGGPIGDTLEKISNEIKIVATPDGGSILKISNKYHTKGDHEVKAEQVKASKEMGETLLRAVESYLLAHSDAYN
# Excerpt: Surface acoustic wave (SAW) technology and NMR spectroscopy were used to observe the interaction of Bet_v_1 with the selected compounds, including determination of the dissociation constant (K d). The influence of ligand binding on the secondary structure elements and the thermal stability of Bet_v_1 was monitored using circular dichroism (CD, JASCO J‐815 spectropolarimeter, Jasco) and Fourier transform infrared (FTIR) spectroscopy (Tensor II FTIR system, Bruker Optics Inc). A detailed description of these methods is available (Appendix [Link], [Link]).
# To validate the interactions determined by SAW, we used NMR spectroscopy to test the specific binding of PPE1, LTA, LPS, and Kdo2 to Bet_v_1 (Table 1, Figure S2). […] The commercially available PPA1 was used as a substitute for PPE1 to identify the phytoprostane binding site(s).
# The NMR data were acquired with either a 600 or 800 MHz Agilent DD2 spectrometer with a cryogenically cooled probe using the pulse sequence gNhsqc. Bet v 1 assignments were taken from.^2 The experiments were performed under the following conditions: LTA: 45 µM Bet v 1 and 300 µM LTA in PBS, 10% ^2H2O, 60 µM DSS; PPE1: 25 µM Bet v 1 and 2 µM PPE1 in PBS, 5% ^2H-(d6) DMSO, 10% ^2H2O, 60 µM DSS; PPA1: 100 µM Bet v 1 and 302 µM PPA1 (Cayman Chemical, MI, USA) in PBS, 8.7% ^2H-(d6) DMSO, 10% ^2H2O, 60 µM DSS; LPS: 100 µM Bet v 1 and 400 µM LPS in PBS pH 7.4, 10% ^2H2O, 60 µM DSS. Kdo2: 100 µM Bet v 1 and 422 µM Kdo2 in PBS pH 7.0, 10% ^2H2O, 8.6% ^2H-(d6) DMSO, 60 µM DSS.
# LPS‐stimulated human DCs = system: LPS‐stimulated human DCs; parameters: method as in PMID 19454659, PMID 17451798; settings: cited from earlier work
# legumain = biological target: T4, legumain (Homo sapiens, UniProt Q99538); assay: Enzymatic activity assay, fluorogenic substrate Z-AAN-AMC; type: biochemical; settings: PPE1 5 µmol/L (Figure 4D)
# T4 construct: made in house
# T4 sequence (Q99538 18-433): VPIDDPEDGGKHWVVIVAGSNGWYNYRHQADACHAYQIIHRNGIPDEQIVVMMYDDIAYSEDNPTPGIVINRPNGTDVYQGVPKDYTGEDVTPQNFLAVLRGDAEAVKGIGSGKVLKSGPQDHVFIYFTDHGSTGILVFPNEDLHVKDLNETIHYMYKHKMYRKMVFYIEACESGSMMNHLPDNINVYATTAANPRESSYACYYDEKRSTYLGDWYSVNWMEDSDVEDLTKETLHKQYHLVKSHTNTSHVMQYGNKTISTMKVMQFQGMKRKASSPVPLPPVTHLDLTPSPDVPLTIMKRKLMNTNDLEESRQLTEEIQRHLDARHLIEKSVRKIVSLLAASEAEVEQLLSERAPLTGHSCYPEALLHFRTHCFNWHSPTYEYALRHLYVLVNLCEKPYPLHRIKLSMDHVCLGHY
# Protocol: as §1
# For the detection of cathepsin or legumain activities in the microsomal fraction, 8 µg of microsomal extract was incubated with 50 µM fluorogenic substrate with or without inhibitor in assay buffer (100 mM citrate pH 4.8 and 2 mM DTT). The enzymatic reactions were carried out in a 50 µL reaction volume in a 96-half-well black flat bottom assay plate (Corning Inc., Corning, NY, USA) at 37°C. The fluorescence signal was recorded using a Tecan Infinite-200 plate reader (Tecan, Männedorf, Switzerland) at an excitation wavelength of 380 nm and emission wavelength of 460 nm for 15 min of continuous measurement with a 30-s interval reading. […]
# cathepsin S = biological target: T5, cathepsin S (Homo sapiens, UniProt P25774); assay: Enzymatic activity assay, fluorogenic substrate Z-VVR-AMC; type: biochemical
# T5 construct: made in house
# Protocol: as §1
# For the detection of cathepsin or legumain activities in the microsomal fraction, 8 µg of microsomal extract was incubated with 50 µM fluorogenic substrate with or without inhibitor in assay buffer (100 mM citrate pH 4.8 and 2 mM DTT). The enzymatic reactions were carried out in a 50 µL reaction volume in a 96-half-well black flat bottom assay plate (Corning Inc., Corning, NY, USA) at 37°C. The fluorescence signal was recorded using a Tecan Infinite-200 plate reader (Tecan, Männedorf, Switzerland) at an excitation wavelength of 380 nm and emission wavelength of 460 nm for 15 min of continuous measurement with a 30-s interval reading. The fluorogenic substrates used for cathepsin S and legumain were Z-VVR-AMC and Z-AAN-AMC (Bachem, Bubendorf, Switzerland), respectively. The inhibitors used for cathepsin S and legumain were Z-FL-COCHO (Sigma-Aldrich, CA, USA) and Ac-YVAD-CMK (Bachem), respectively^11.
# T5 sequence (P25774 115-331): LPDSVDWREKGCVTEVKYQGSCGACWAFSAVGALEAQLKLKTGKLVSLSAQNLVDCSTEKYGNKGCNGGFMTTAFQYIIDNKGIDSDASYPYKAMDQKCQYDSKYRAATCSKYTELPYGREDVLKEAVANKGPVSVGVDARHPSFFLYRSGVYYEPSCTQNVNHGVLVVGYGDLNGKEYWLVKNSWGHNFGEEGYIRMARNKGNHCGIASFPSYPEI
# T1 sequence (P00787 80-339): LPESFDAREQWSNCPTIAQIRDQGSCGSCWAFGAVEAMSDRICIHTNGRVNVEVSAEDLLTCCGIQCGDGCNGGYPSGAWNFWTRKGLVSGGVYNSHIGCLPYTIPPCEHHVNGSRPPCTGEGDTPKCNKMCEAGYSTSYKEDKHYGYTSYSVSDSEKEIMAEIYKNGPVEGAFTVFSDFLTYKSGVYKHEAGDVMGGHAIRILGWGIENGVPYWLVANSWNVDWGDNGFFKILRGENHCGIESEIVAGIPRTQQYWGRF
smiles,measurement,setting,value
"CCC1C(=O)CC(O)C1/C=C/C(O)CCCCCCCC(=O)O (stereo not drawn) [PPE1, E1 phytoprostanes]",rat cathepsin B fluorogenic activity,[1],inhibits
same,papain fluorogenic activity,papain,inhibits
same,"NMR (binding confirmation, K d)","Bet_v_1; 15N-labeled Bet v 1, direct measurement of Kd prevented by intermediate exchange",low to sub‐µmol/L
same,specific binding to Bet v 1 (1H-15N HSQC spectra),Bet_v_1; absence vs presence of compound,specifically binds
same,production of IL‐12p70,LPS‐stimulated human DCs,inhibits the production of IL‐12p70
same,legumain activity in the presence of DTT and TCEP,legumain,no inhibitory effect
same,cathepsin S fluorogenic activity,"cathepsin S; 10 nmol/L protease, 100 µmol/L ligand, 50 µmol/L substrate, pH 5.0, 2 mmol/L DTT (Figure 3A)",specifically inhibited
same,cathepsin S fluorogenic activity,"cathepsin S; PPE1 5 µmol/L, 15 min (Figure 4A)",inhibits
same,cathepsin S activity in the presence of TCEP,"cathepsin S; PPE1 5 µmol/L, 0.5 mmol/L TCEP instead of DTT (Figure 4D)",completely abolished

# From paper PMC6910946, “Multiple roles of Bet v 1 ligands in allergen stabilization and modulation of endosomal protease activity” (Allergy, 2019)
